Data published in patent US5698522A, “6-position modified decapeptide LHRH antagonists” (Abbott Laboratories, priority 1995, dated 1997).
Where a SMILES comes first, the peptide text is derived from it. Side-chain parts run from the residue outwards. [ ]: non-standard residue; d: D form. The star is where a group is joined. Quinoline4carbonyl = O=C(c1ccnc2ccccc12)*; dPhe(4-Cl) = N[C@H](Cc1ccc(Cl)cc1)C(=O)O; d2Nal = N[C@H](Cc1ccc2ccccc2c1)C(=O)O; Lys(iPr) = CC(C)NCCCC[C@H](N)C(=O)O; NMeY = CN[C@@H](Cc1ccc(O)cc1)C(=O)O; Pyrazinecarbonyl = O=C(c1cnccn1)*; d3Pal = N[C@H](Cc1cccnc1)C(=O)O; Nicotinoyl = O=C(c1cccnc1)*; dOrn = NCCC[C@@H](N)C(=O)O; 2Furoyl = O=C(c1ccco1)*; Propionyl = CCC(=O)*; GABA = NCCCC(=O)O; azaGly = NNC(=O)O; βAla = NCCC(=O)O; Sar = CNCC(=O)O

molecular target: T1, LHRH receptor (Rattus norvegicus, UniProt P30969); test: in vitro LHRH antagonist potency (pA2) against the agonist leuprolide; assay type: cell-based; details: negative logarithm of the antagonist concentration which shifts the response curve produced by the agonist leuprolide to two-fold higher concentration
T1 construct: endogenous in cells
T1 sequence (P30969 1-327): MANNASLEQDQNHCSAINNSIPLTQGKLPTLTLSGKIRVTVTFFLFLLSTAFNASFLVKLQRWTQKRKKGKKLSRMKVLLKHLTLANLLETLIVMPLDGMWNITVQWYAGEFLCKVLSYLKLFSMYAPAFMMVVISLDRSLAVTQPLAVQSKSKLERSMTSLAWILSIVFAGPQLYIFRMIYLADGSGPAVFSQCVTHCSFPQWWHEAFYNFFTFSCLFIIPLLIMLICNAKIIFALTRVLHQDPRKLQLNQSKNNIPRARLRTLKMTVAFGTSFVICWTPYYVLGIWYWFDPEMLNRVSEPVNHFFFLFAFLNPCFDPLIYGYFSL
How it was run: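 Functional antagonism against the agonist leuprolide. pA2 is the negative log of antagonist concentration that shifts the leuprolide response curve to twofold higher concentration.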

Compound	Kb
CC(=O)N[C@H](Cc1ccc2ccccc2c1)C(=O)N[C@H](Cc1ccc(Cl)cc1)C(=O)N[C@H](Cc1cccnc1)C(=O)N[C@@H](CO)C(=O)N(C)[C@@H](Cc1ccc(O)cc1)C(=O)N[C@H](CCCCNC(=O)CNC(=O)c1ccnc2ccccc12)C(=O)N[C@@H](CC(C)C)C(=O)N[C@@H](CCCNC(=N)N)C(=O)N1CCC[C@H]1C(=O)N[C@H](C)C(N)=O [Example 51d, NAc-D2Nal^1 -D4ClPhe^2 -D3Pal^3 -Ser^4 -NMeTyr^6 -DLys(N-epsilon-Gly-4-Quinolinyl)^6 -Leu^7 -Arg^8 -Pro^9 -DAla^10 NH2] (Ac-[d2Nal][dPhe(4-Cl)][d3Pal]S[NMeY][dK]([Gly-Quinoline4carbonyl])LRP[dA]-NH2)	0.0141 nM
CC(=O)N[C@H](Cc1ccc2ccccc2c1)C(=O)N[C@H](Cc1ccc(Cl)cc1)C(=O)N[C@H](Cc1cccnc1)C(=O)N[C@@H](CO)C(=O)N(C)[C@@H](Cc1ccc(O)cc1)C(=O)N[C@H](CCCCNC(=O)CNC(=O)c1cnccn1)C(=O)N[C@@H](CC(C)C)C(=O)N[C@@H](CCCNC(=N)N)C(=O)N1CCC[C@H]1C(=O)N[C@H](C)C(N)=O [Example 51e, NAc-D2Nal^1 -D4ClPhe^2 -D3Pal^3 -Ser^4 -NMeTyr^6 -DLys(N-epsilon-Gly-2-Pyrazinecarbonyl)^6 -Leu^7 -Arg^8 -Pro^9 -DAla^10 NH2] (Ac-[d2Nal][dPhe(4-Cl)][d3Pal]S[NMeY][dK]([Gly-Pyrazinecarbonyl])LRP[dA]-NH2)	0.00692 nM
CC(=O)N[C@H](Cc1ccc2ccccc2c1)C(=O)N[C@H](Cc1ccc(Cl)cc1)C(=O)N[C@H](Cc1cccnc1)C(=O)N[C@@H](CO)C(=O)N(C)[C@@H](Cc1ccc(O)cc1)C(=O)N[C@H](CCCNC(=O)NNC(=O)c1ccco1)C(=O)N[C@@H](CC(C)C)C(=O)N[C@@H](CCCCNC(C)C)C(=O)N1CCC[C@H]1C(=O)N[C@H](C)C(N)=O [Example 52, NAc-D2-Nal^1 -D4ClPhe^2 -D3Pal^3 -Ser^4 -NMeTyr^5 -DOrn(N-epsilon-Azagly-2-Furoyl)^6 -Leu^7 -Lys(N-epsilon-Isopropyl)^8 -Pro^9 -DAla^10 NH2] (Ac-[d2Nal][dPhe(4-Cl)][d3Pal]S[NMeY][dOrn]([azaGly-2Furoyl])L[Lys(iPr)]P[dA]-NH2)	0.0155 nM
CC(=O)N[C@H](Cc1ccc2ccccc2c1)C(=O)N[C@H](Cc1ccc(Cl)cc1)C(=O)N[C@H](Cc1cccnc1)C(=O)N[C@@H](CO)C(=O)N(C)[C@@H](Cc1ccc(O)cc1)C(=O)N[C@H](CCCNC(=O)NNC(=O)c1cccnc1)C(=O)N[C@@H](CC(C)C)C(=O)N[C@@H](CCCCNC(C)C)C(=O)N1CCC[C@H]1C(=O)N[C@H](C)C(N)=O [Example 53a, NAc-D2Nal^1 -D4ClPhe^2 -D3Pal^3 -Ser^4 -NMeTyr^5 -DOrn(N-epsilon-Azagly-Nicotinyl)^6 -Leu^7 -Lys(N-epsilon-Isopropyl)^8 -Pro^9 -DAla^10 NH2] (Ac-[d2Nal][dPhe(4-Cl)][d3Pal]S[NMeY][dOrn]([azaGly-Nicotinoyl])L[Lys(iPr)]P[dA]-NH2)	0.0331 nM
CC(=O)N[C@H](Cc1ccc2ccccc2c1)C(=O)N[C@H](Cc1ccc(Cl)cc1)C(=O)N[C@H](Cc1cccnc1)C(=O)N[C@@H](CO)C(=O)N(C)[C@@H](Cc1ccc(O)cc1)C(=O)N[C@H](CCCNC(=O)CNC(=O)c1cccnc1)C(=O)N[C@@H](CC(C)C)C(=O)N[C@@H](CCCCNC(C)C)C(=O)N1CCC[C@H]1C(=O)N[C@H](C)C(N)=O [Example 54, NAc-D2Nal^1 -D4ClPhe^2 -D3Pal^3 -Ser^4 -NMeTyr^5 -DOrn(N-epsilon-Gly-Nicotinyl)^6 -Leu^7 -Lys(N-epsilon-Isopropyl)^8 -Pro^9 -DAla^10 NH2] (Ac-[d2Nal][dPhe(4-Cl)][d3Pal]S[NMeY][dOrn]([Gly-Nicotinoyl])L[Lys(iPr)]P[dA]-NH2)	0.0302 nM
CC(=O)N[C@H](Cc1ccc2ccccc2c1)C(=O)N[C@H](Cc1ccc(Cl)cc1)C(=O)N[C@H](Cc1cccnc1)C(=O)N[C@@H](CO)C(=O)N(C)[C@@H](Cc1ccc(O)cc1)C(=O)N[C@H](CCCCNC(=O)CNC(=O)CNC(=O)c1ccco1)C(=O)N[C@@H](CC(C)C)C(=O)N[C@@H](CCCCNC(C)C)C(=O)N1CCC[C@H]1C(=O)N[C@H](C)C(N)=O [Example 57a, NAcD2Nal^1 -D4ClPhe^2 -D3Pal^3 -Ser^4 -NMeTyr^5 -DLys(N-epsilon-Gly-Gly-furoyl)^6 -Leu^7 -Lys(Isp)^8 -Pro^9 -DAla^10 NH2] (Ac-[d2Nal][dPhe(4-Cl)][d3Pal]S[NMeY][dK]([Gly-Gly-2Furoyl])L[Lys(iPr)]P[dA]-NH2)	0.0145 nM
CC(=O)N[C@H](Cc1ccc2ccccc2c1)C(=O)N[C@H](Cc1ccc(Cl)cc1)C(=O)N[C@H](Cc1cccnc1)C(=O)N[C@@H](CO)C(=O)N(C)[C@@H](Cc1ccc(O)cc1)C(=O)N[C@H](CCCCNC(=O)CCNC(=O)CNC(=O)c1ccco1)C(=O)N[C@@H](CC(C)C)C(=O)N[C@@H](CCCCNC(C)C)C(=O)N1CCC[C@H]1C(=O)N[C@H](C)C(N)=O [Example 57c, NAc-D2Nal^1 -D4ClPhe^2 -D3Pal^3 -Ser^4 -NMeTyr^5 -DLys(N-epsilon-beta-alanyl-glycyl-furoyl)^6 -Leu^7 -Lys(Isp)^8 -Pro^9 -DAla^10 NH2] (Ac-[d2Nal][dPhe(4-Cl)][d3Pal]S[NMeY][dK]([βAla-Gly-2Furoyl])L[Lys(iPr)]P[dA]-NH2)	0.0186 nM
CC(=O)N[C@H](Cc1ccc2ccccc2c1)C(=O)N[C@H](Cc1ccc(Cl)cc1)C(=O)N[C@H](Cc1cccnc1)C(=O)N[C@@H](CO)C(=O)N(C)[C@@H](Cc1ccc(O)cc1)C(=O)N[C@H](CCCCNC(=O)CCCNC(=O)CNC(=O)c1ccco1)C(=O)N[C@@H](CC(C)C)C(=O)N[C@@H](CCCCNC(C)C)C(=O)N1CCC[C@H]1C(=O)N[C@H](C)C(N)=O [Example 57e, NAc-D2Nal^1 -D4ClPhe^2 -D3Pal^3 -Ser^4 -NMeTyr^5 -DLys(N-epsilon-4-aminobutyryl-glycyl-furoyl)^6 -Leu^7 -Lys(Isp)^8 -Pro^9 -DAla^10 NH2] (Ac-[d2Nal][dPhe(4-Cl)][d3Pal]S[NMeY][dK]([GABA-Gly-2Furoyl])L[Lys(iPr)]P[dA]-NH2)	0.012 nM
CCC(=O)NNC(=O)NCCCC[C@@H](NC(=O)[C@H](Cc1ccc(O)cc1)N(C)C(=O)[C@H](CO)NC(=O)[C@@H](Cc1cccnc1)NC(=O)[C@@H](Cc1ccc(Cl)cc1)NC(=O)[C@@H](Cc1ccc2ccccc2c1)NC(C)=O)C(=O)N[C@@H](CC(C)C)C(=O)N[C@@H](CCCCNC(C)C)C(=O)N1CCC[C@H]1C(=O)N[C@H](C)C(N)=O [Example 58, NAc-D2Nal^1 -D4ClPhe^2 -D3Pal^3 -Ser^4 -NMeTyr^5 -DLys(N-epsilon-Azagly-Propionyl)^6 -Leu^7 -Lys(N-epsilon-Isopropyl)^8 -Pro^9 -DAla^10 NH2] (Ac-[d2Nal][dPhe(4-Cl)][d3Pal]S[NMeY][dK]([azaGly-Propionyl])L[Lys(iPr)]P[dA]-NH2)	0.0257 nM
CC(=O)N[C@H](Cc1ccc2ccccc2c1)C(=O)N[C@H](Cc1ccc(Cl)cc1)C(=O)N[C@H](Cc1cccnc1)C(=O)N[C@@H](CO)C(=O)N(C)[C@@H](Cc1ccc(O)cc1)C(=O)N[C@H](CCCCNC(=O)NNC(=O)c1ccco1)C(=O)N[C@@H](CC(C)C)C(=O)N[C@@H](CCCCNC(C)C)C(=O)N1CCC[C@H]1C(=O)N(C)CC(N)=O [Example 59, NAc-D2Nal^1 -D4ClPhe^2 -D3Pal^3 -Ser^4 -NMeTyr^5 -DLys(N-epsilon-Azagly-Fur-2-oyl)^6 -Leu^7 -Lys(N-epsilon-Isopropyl)^8 -Pro^9 -Sar^10 NH2] (Ac-[d2Nal][dPhe(4-Cl)][d3Pal]S[NMeY][dK]([azaGly-2Furoyl])L[Lys(iPr)]P[Sar]-NH2)	0.0363 nM
